Test results as given in patent US10202361B2, “Pyridazinones as herbicides” (E I DU PONT DE NEMOURS AND COMPANY, priority 2014, dated 2019).
Where two headings read alike, the source gives them in different places.

Legend:
Test in all cases: Test C pre-/postemergence greenhouse herbicide test
Type in all cases: in vivo
[1] = test system: blackgrass (Alopecurus myosuroides); conditions: Alopecurus myosuroides, Blackgrass, read-out: Plant response rating; for pest or weed control at 31 g/ha: 31 g ai/ha; for pest or weed control at 62 g/ha: 62 g ai/ha; for pest or weed control at 125 g/ha: 125 g ai/ha; for pest or weed control at 250 g/ha: 250 g ai/ha
Summary of the method: (§1)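 Visual ratings, 0 = no effect, 100 = complete control, vs untreated controls at 13–15 d. Pre: seeds in loam/sand. Post: 2–18 cm plants (1–4 leaf), peat/vermiculite mix. Surfactant-containing solvent formulation; greenhouse.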

[2] = test system: corn (Zea mays); conditions: Zea mays, Corn, read-out: Plant response rating; for plant injury at 62 g/ha: 62 g ai/ha; for plant injury at 125 g/ha: 125 g ai/ha; for plant injury at 250 g/ha: 250 g ai/ha
Summary of the method: as §1

[3] = test system: foxtail, giant (giant foxtail, Setaria faberii); conditions: Setaria faberi, Foxtail, Giant, read-out: Plant response rating; for pest or weed control at 31 g/ha: 31 g ai/ha; for pest or weed control at 62 g/ha: 62 g ai/ha; for pest or weed control at 125 g/ha: 125 g ai/ha; for pest or weed control at 250 g/ha: 250 g ai/ha
Summary of the method: as §1

[4] = test system: galium (catchweed bedstraw, Galium aparine); conditions: Galium, read-out: Plant response rating; for pest or weed control at 62 g/ha: 62 g ai/ha; for pest or weed control at 125 g/ha: 125 g ai/ha; for pest or weed control at 250 g/ha: 250 g ai/ha
Summary of the method: as §1

[5] = test system: kochia (Kochia scoparia); conditions: Postemergence
Summary of the method: as §1

[6] = test system: lambsquarters (Chenopodium album)
Summary of the method: as §1

[7] = test system: morningglory (Ipomoea coccinea); conditions: Morningglory
Summary of the method: as §1

[8] = test system: nutsedge, yellow (yellow nutsedge, Cyperus esculentus); conditions: Cyperus, Nutsedge, Yellow, read-out: Plant response rating; for pest or weed control at 31 g/ha: 31 g ai/ha; for pest or weed control at 62 g/ha: 62 g ai/ha; for pest or weed control at 125 g/ha: 125 g ai/ha
Summary of the method: as §1

[9] = test system: ryegrass, Italian (Italian ryegrass, Lolium multiflorum); conditions: Lolium multiflorum, Ryegrass, Italian, read-out: Plant response rating; for pest or weed control at 31 g/ha: 31 g ai/ha; for pest or weed control at 62 g/ha: 62 g ai/ha; for pest or weed control at 125 g/ha: 125 g ai/ha; for pest or weed control at 250 g/ha: 250 g ai/ha
Summary of the method: as §1

[10] = test system: soybean (Glycine max); conditions: Glycine max, Soybean, read-out: Plant response rating; for plant injury at 62 g/ha: 62 g ai/ha; for plant injury at 125 g/ha: 125 g ai/ha; for plant injury at 250 g/ha: 250 g ai/ha
Summary of the method: as §1

[11] = test system: velvetleaf (Abutilon theophrasti); conditions: Abutilon theophrasti, Velvetleaf, read-out: Plant response rating; for pest or weed control at 62 g/ha: 62 g ai/ha; for pest or weed control at 125 g/ha: 125 g ai/ha; for pest or weed control at 250 g/ha: 250 g ai/ha
Summary of the method: as §1

[12] = test system: waterhemp (common waterhemp, Amaranthus rudis); conditions: Waterhemp
Summary of the method: as §1

[13] = post-emergence, Postemergence, 31 g ai/ha

## Cc1cc(=O)n(-c2ccc(C(F)(F)F)cc2)nc1Cc1ccnc(C(F)(F)F)c1 [Compound 2, 5-methyl-2-[4-(trifluoromethyl)phenyl]-6-[[2-(trifluoromethyl)-4-pyridinyl]methyl]-3(2H)-pyridazinone]
[1]; post-emergence, Postemergence
  pest or weed control at 31 g/ha: 5%
  pest or weed control at 62 g/ha: 5%
  pest or weed control at 125 g/ha: 10%
  pest or weed control at 250 g/ha: 15%
[1]; pre-emergence, Preemergence
  pest or weed control at 31 g/ha: 10%
  pest or weed control at 62 g/ha: 45%
  pest or weed control at 125 g/ha: 90%
  pest or weed control at 250 g/ha: 90%
[2]; post-emergence, Postemergence
  plant injury at 62 g/ha: 20%
  plant injury at 125 g/ha: 20%
  plant injury at 250 g/ha: 20%
[2]; pre-emergence, Preemergence, 31 g ai/ha
  plant injury at 31 g/ha: 35%
[2]; pre-emergence, Preemergence
  plant injury at 62 g/ha: 55%
  plant injury at 125 g/ha: 75%
  plant injury at 250 g/ha: 75%
[3]; post-emergence, Postemergence
  pest or weed control at 31 g/ha: 10%
  pest or weed control at 62 g/ha: 10%
  pest or weed control at 125 g/ha: 25%
  pest or weed control at 250 g/ha: 25%
[3]; pre-emergence, Preemergence
  pest or weed control at 31 g/ha: 45%
  pest or weed control at 62 g/ha: 98%
  pest or weed control at 125 g/ha: 100%
  pest or weed control at 250 g/ha: 100%
[4]; [13]
  pest or weed control at 31 g/ha: 50%
[4]; post-emergence, Postemergence
  pest or weed control at 62 g/ha: 80%
  pest or weed control at 125 g/ha: 80%
  pest or weed control at 250 g/ha: 85%
[4]; pre-emergence, Preemergence
  pest or weed control at 62 g/ha: 85%
  pest or weed control at 125 g/ha: 98%
  pest or weed control at 250 g/ha: 100%
[5]; 31 g ai/ha
  Plant response rating: 80
[5]; 62 g ai/ha
  Plant response rating: 85
[5]; 125 g ai/ha
  Plant response rating: 90
[5]; 250 g ai/ha
  Plant response rating: 90
[6]; Postemergence, 31 g ai/ha
  Plant response rating: 55
[6]; Postemergence, 62 g ai/ha
  Plant response rating: 70
[6]; Postemergence, 125 g ai/ha
  Plant response rating: 75
[6]; Postemergence, 250 g ai/ha
  Plant response rating: 80
[6]; Preemergence, 31 g ai/ha
  Plant response rating: 100
[6]; Preemergence, 62 g ai/ha
  Plant response rating: 100
[6]; Preemergence, 125 g ai/ha
  Plant response rating: 100
[6]; Preemergence, 250 g ai/ha
  Plant response rating: 100
[7]; Postemergence, 31 g ai/ha
  Plant response rating: 10
[7]; Postemergence, 125 g ai/ha
  Plant response rating: 15
[7]; Postemergence, 250 g ai/ha
  Plant response rating: 15
[7]; Preemergence, 31 g ai/ha
  Plant response rating: 55
[7]; Preemergence, 62 g ai/ha
  Plant response rating: 65
[7]; Preemergence, 125 g ai/ha
  Plant response rating: 85
[7]; Preemergence, 250 g ai/ha
  Plant response rating: 100
[8]; post-emergence, Postemergence
  pest or weed control at 31 g/ha: 5%
  pest or weed control at 62 g/ha: 5%
  pest or weed control at 125 g/ha: 5%
[8]; post-emergence, Postemergence, 250 g ai/ha
  pest or weed control at 250 g/ha: 10%
[8]; pre-emergence, Preemergence
  pest or weed control at 31 g/ha: 10%
  pest or weed control at 62 g/ha: 25%
  pest or weed control at 125 g/ha: 35%
[9]; post-emergence, Postemergence
  pest or weed control at 31 g/ha: 5%
  pest or weed control at 62 g/ha: 5%
  pest or weed control at 125 g/ha: 5%
  pest or weed control at 250 g/ha: 5%
[9]; pre-emergence, Preemergence
  pest or weed control at 31 g/ha: 5%
  pest or weed control at 62 g/ha: 15%
  pest or weed control at 125 g/ha: 65%
  pest or weed control at 250 g/ha: 85%
[10]; [13]
  plant injury at 31 g/ha: 20%
[10]; post-emergence, Postemergence
  plant injury at 62 g/ha: 30%
  plant injury at 125 g/ha: 40%
  plant injury at 250 g/ha: 40%
[10]; pre-emergence, Preemergence
  plant injury at 62 g/ha: 25%
  plant injury at 125 g/ha: 55%
  plant injury at 250 g/ha: 60%
[11]; [13]
  pest or weed control at 31 g/ha: 25%
[11]; post-emergence, Postemergence
  pest or weed control at 62 g/ha: 30%
  pest or weed control at 125 g/ha: 30%
  pest or weed control at 250 g/ha: 35%
[11]; pre-emergence, Preemergence
  pest or weed control at 62 g/ha: 40%
  pest or weed control at 125 g/ha: 85%
  pest or weed control at 250 g/ha: 85%
[12]; Postemergence, 31 g ai/ha
  Plant response rating: 75
[12]; Postemergence, 62 g ai/ha
  Plant response rating: 75
[12]; Postemergence, 125 g ai/ha
  Plant response rating: 75
[12]; Postemergence, 250 g ai/ha
  Plant response rating: 80
[12]; Preemergence, 62 g ai/ha
  Plant response rating: 100
[12]; Preemergence, 125 g ai/ha
  Plant response rating: 100
[12]; Preemergence, 250 g ai/ha
  Plant response rating: 100
